{"source": "patent US12539336B2", "about": "“Antibody, linkers, payload, conjugates and applications thereof” (GeneQuantum Healthcare (Suzhou) Co., Ltd., priority 2022, dated 2026)", "key": {"[1]": {"test_system": "Trop2-positive cells BxPC-3 and Trop2-negative HepG2 cells", "assay": "Bystander killing in BxPC-3/HepG2 co-culture assay (BxPC-3:HepG2=2:1)", "type": "cell-based, human", "conditions": "effect example 1.3, conclusion", "method": "(§1) A negative control group was set: 3 mL of 45% RPMI-1640+45% DMEM+10% FBS medium was added to each well. After the treatment, the cells were moved to the incubator and incubated for 96 h. After the incubation, cells were digested, and washed once with 1×PBS, then transferred to a flow tube, and centrifuged at 2000 rpm for 3 min. The supernatant was then discarded, and the cell amount and cell viability were detected. […] The cells were washed with 1×PBS, the supernatant was discarded after centrifugation, 200 μL of 5 μg/mL human IgG Fc antibody was added, and the resulting cells were continued to incubate at 4° C. for 30 min after mixing. Finally, the cells were washed with 1×PBS, the supernatant was discarded after centrifugation, and the cells were resuspended in PBS, detected by flow cytometry and analyzed by FlowJo software."}, "[2]": {"test_system": "Trop2-positive cells BxPC-3 and Trop2-negative cells HepG2", "assay": "Bystander killing in BxPC-3/HepG2 co-culture assay (BxPC-3:HepG2=4:1)", "type": "cell-based, human", "conditions": "effect example 1.1, conclusion", "method": "as §1"}}}
{"substance": "DS1062a", "values": [{"measurement": "bystander killing effect", "setting": "[1]", "result": "had bystander killing effects"}, {"measurement": "bystander killing effect", "setting": "[2]", "result": "had bystander killing effects"}]}
